{"source": "ChEMBL document CHEMBL1201862", "about": "“PubChem BioAssay data set” (2004)", "key": {"Paired box protein Pax-8": {"biological_target": "Paired box protein Pax-8 (Homo sapiens, UniProt Q06710)", "sequence (Q06710 whole entry)": "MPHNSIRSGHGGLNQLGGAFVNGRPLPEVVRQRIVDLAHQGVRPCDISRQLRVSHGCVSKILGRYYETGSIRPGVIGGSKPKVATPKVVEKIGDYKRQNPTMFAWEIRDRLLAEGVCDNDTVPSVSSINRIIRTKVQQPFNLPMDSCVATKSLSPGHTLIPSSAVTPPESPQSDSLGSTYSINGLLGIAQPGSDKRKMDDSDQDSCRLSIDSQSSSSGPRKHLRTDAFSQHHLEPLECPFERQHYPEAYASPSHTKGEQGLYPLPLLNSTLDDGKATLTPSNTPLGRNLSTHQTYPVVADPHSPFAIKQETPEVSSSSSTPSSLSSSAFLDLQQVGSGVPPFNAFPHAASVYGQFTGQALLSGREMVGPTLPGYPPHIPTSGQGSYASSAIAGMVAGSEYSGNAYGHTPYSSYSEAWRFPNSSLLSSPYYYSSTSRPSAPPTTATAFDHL", "assay": "inhibitors of PAX8-driven TPO luciferase reporter, dose response, RMG-I cells, cherry-pick (AID 687027);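 further: luciferase reporter driven by Pax8 target thyroperoxidase promoter measured by SteadyGlo luminescence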", "type": "functional, cell-based"}, "[1]": {"assay": "NIH:OVCAR-3 ovarian cancer cell cytotoxicity, dose response, PAX8 inhibitor project, plate reader, dry powder samples (AID 743044)", "type": "functional, cell-based"}, "[2]": {"assay": "cytotoxicity in OVCAR8 ovarian cancer cells, dose response, PAX8 project, cell-based, plate reader, dry powder samples (AID 743197)", "type": "functional", "conditions": "OVCAR-8"}, "[3]": {"biological_target": "T1, Short transient receptor potential channel 4 (Mus musculus, UniProt Q9QUQ5)", "T1 sequence (Q9QUQ5 whole entry)": "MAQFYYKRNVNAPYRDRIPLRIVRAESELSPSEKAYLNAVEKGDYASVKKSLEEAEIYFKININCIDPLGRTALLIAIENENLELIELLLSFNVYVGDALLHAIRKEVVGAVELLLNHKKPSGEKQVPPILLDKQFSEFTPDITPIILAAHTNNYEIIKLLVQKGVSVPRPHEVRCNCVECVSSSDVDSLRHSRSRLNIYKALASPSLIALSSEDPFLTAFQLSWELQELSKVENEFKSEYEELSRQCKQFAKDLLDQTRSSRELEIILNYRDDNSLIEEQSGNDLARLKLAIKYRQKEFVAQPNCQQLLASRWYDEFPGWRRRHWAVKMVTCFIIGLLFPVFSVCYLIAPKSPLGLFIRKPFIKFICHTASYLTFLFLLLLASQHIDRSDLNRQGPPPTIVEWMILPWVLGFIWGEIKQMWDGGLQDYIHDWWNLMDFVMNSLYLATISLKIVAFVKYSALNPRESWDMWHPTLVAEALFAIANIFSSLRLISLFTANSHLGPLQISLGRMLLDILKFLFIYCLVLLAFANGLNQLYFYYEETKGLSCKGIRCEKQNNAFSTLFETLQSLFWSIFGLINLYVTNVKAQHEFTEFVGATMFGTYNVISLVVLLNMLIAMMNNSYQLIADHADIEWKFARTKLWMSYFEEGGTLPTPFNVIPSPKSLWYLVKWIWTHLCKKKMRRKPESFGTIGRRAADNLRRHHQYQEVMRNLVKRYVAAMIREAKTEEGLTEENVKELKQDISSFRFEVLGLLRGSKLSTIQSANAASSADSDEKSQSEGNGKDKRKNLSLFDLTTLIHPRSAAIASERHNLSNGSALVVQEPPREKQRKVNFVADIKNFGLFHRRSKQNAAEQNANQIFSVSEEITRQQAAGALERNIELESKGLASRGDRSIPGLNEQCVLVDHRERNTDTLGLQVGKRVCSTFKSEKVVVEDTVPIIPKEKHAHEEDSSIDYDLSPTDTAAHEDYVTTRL", "assay": "mouse TRPC4 channel activators, dose response, cell-based, HEK293 TRPC4/mu-opioid, Fluo-4 calcium (AID 434937)", "type": "functional"}, "[4]": {"system": "Streptococcus sp. 'group A'", "assay": "growth inhibition of control SK(-) GAS strain, dose response, counter-screen for streptokinase expression inhibitor project, luminescence, kanamycin, BacTiterGlo, confirmation (AID 1900)", "type": "functional, organism-based"}, "Streptococcus": {"system": "Streptococcus", "assay": "Group A Streptococcus viability loss, dose response, counter-screen for streptokinase expression inhibitor project, luminescence, BacTiterGlo (AID 1915);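 further: potency for reduction of bacterial viability or growth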", "type": "functional, organism-based"}, "[5]": {"biological_target": "Voltage-dependent T-type calcium channel subunit alpha-1H (Homo sapiens, UniProt O95180)", "sequence (O95180 whole entry)": "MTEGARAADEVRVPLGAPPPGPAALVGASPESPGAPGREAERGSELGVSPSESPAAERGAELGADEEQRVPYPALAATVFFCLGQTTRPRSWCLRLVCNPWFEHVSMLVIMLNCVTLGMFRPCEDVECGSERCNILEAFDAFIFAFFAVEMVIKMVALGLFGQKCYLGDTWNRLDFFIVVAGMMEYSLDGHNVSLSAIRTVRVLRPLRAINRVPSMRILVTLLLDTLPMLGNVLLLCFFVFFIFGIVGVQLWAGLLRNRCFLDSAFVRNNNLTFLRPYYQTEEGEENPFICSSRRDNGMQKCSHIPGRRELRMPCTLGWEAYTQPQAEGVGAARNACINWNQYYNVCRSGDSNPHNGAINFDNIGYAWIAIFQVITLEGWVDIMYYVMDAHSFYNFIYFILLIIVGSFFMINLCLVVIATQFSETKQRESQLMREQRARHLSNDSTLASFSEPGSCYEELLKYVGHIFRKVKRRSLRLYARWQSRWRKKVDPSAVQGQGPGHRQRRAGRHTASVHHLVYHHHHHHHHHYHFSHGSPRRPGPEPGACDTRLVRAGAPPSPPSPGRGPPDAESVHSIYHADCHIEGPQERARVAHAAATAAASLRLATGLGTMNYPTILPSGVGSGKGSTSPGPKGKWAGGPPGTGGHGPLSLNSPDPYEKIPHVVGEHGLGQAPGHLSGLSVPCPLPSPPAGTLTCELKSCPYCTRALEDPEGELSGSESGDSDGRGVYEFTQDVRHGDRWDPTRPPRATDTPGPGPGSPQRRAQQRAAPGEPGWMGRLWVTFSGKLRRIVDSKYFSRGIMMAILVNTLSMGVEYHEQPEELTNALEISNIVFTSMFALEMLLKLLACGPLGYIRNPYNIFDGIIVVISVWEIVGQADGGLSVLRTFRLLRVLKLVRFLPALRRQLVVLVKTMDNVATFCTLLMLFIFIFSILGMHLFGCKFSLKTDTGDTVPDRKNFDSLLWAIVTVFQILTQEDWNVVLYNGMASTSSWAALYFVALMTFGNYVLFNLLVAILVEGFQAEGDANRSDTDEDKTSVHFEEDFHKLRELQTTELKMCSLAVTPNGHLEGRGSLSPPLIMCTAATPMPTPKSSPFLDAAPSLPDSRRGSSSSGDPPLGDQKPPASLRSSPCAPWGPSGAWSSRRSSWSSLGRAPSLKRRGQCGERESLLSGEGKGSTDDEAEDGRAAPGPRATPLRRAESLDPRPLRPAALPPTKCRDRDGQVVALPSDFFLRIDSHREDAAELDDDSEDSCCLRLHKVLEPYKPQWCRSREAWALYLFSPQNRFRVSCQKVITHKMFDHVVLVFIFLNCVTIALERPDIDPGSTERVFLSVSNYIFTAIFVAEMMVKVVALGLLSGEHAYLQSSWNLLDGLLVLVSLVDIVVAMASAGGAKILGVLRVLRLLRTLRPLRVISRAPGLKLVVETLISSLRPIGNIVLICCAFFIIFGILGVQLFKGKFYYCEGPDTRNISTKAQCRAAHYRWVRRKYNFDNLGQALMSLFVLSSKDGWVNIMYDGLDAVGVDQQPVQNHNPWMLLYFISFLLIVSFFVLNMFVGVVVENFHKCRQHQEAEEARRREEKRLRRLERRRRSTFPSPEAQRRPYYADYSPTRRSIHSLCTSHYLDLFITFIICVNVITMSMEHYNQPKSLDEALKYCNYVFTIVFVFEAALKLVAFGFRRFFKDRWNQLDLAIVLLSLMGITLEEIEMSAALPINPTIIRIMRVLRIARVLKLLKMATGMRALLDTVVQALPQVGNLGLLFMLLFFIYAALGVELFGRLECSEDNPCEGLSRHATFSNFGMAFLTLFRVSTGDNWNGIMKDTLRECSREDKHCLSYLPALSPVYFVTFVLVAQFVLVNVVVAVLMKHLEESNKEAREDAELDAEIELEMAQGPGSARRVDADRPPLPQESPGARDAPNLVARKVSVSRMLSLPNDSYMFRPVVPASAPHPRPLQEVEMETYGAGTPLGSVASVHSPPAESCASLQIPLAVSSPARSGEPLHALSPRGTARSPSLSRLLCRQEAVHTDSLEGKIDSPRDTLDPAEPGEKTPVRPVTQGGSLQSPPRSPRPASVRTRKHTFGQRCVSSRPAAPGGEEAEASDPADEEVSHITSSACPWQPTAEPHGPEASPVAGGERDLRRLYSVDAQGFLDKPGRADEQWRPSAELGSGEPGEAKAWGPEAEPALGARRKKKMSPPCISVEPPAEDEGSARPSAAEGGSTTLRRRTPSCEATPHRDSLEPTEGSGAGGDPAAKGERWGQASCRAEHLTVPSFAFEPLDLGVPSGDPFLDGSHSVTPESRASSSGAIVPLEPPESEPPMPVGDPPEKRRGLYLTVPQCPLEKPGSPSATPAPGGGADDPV", "type": "functional"}, "Kallikrein-7": {"biological_target": "Kallikrein-7 (Homo sapiens, UniProt P49862)", "sequence (P49862 whole entry)": "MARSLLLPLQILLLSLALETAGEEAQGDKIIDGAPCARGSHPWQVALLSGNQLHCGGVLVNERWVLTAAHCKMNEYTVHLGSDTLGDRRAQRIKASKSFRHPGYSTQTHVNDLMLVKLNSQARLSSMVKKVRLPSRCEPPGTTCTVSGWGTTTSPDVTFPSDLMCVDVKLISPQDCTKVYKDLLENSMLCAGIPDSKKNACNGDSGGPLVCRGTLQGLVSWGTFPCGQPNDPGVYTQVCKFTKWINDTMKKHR", "assay": "Fluorescence Intensity-based biochemical primary high throughput dose response assay to identify activators of kallikrein-7 (K7) zymogen."}, "[6]": {"assay": "growth suppression of PTEN-null colon cells, dose response, cell-based, HCT116 PTEN knockout (AID 1047);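 further: cells exposed to compound for 60 hours before readout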", "type": "functional"}, "[7]": {"assay": "growth suppression of beta-catenin-knockout colon cells, dose response, cell-based, HCT116, human colon tumor (AID 1045);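 further: cells exposed to compound for 60 hours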", "type": "functional"}, "[8]": {"biological_target": "Eukaryotic translation initiation factor 4E (Mus musculus, UniProt P63073)", "sequence (P63073 whole entry)": "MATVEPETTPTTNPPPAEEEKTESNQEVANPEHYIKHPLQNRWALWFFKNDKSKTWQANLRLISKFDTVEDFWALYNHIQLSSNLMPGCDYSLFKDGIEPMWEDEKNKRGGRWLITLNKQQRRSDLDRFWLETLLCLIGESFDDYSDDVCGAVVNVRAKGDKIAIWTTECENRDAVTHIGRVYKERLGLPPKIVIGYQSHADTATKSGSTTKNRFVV", "assay": "eIF4E–eIF4G protein interaction inhibitors, dose response, biochemical, TR-FRET (AID 855);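 further: potency for disrupting eIF4E binding to eIF4GI seen as loss of FRET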", "type": "functional"}, "[9]": {"assay": "A cytotoxicity screen of small molecule inhibitors of the PhoP region in Salmonella typhi identified in the primary screen. [Related pubchem assays: 1850, 1864, 1985 ]", "type": "functional"}, "Cytochrome P450 3A4": {"biological_target": "Cytochrome P450 3A4 (Homo sapiens, UniProt P08684)", "sequence (P08684 whole entry)": "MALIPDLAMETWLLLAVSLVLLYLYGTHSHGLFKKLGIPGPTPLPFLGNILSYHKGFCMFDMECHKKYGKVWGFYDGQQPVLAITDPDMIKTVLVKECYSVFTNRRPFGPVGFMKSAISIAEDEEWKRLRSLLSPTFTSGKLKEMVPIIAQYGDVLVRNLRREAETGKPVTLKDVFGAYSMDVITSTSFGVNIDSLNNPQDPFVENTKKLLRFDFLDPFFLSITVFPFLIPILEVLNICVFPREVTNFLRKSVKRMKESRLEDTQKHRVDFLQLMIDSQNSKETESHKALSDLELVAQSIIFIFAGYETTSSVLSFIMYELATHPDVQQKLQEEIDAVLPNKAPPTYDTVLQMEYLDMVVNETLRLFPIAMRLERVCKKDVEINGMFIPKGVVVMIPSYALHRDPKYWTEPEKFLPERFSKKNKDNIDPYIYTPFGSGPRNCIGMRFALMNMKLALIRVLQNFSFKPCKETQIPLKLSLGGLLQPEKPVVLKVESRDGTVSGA", "conditions": "Potency"}, "[10]": {"assay": "Shn3 3'UTR reporter inhibitors, dose response, cell-based, Clone20 osteoblasts, firefly luciferase, cherry-picked (AID 624132)", "type": "functional"}, "[11]": {"assay": "HepG2 cell cytotoxicity, dose response, cytotoxicity control for Shn3 inhibitor project, CellTiter-Glo, cherry-picked (AID 624134)", "type": "functional, cell-based"}, "[12]": {"assay": "control 3'UTR Renilla luciferase suppression, dose response, counter-screen for Shn3 inhibitor project, cell-based, Clone20-Shn3RL, cherry-picked (AID 624133)", "type": "functional"}, "Aminopeptidase N": {"biological_target": "T2, Aminopeptidase N (Plasmodium falciparum FcB1/Columbia, UniProt O96935)", "T2 sequence (O96935 whole entry)": "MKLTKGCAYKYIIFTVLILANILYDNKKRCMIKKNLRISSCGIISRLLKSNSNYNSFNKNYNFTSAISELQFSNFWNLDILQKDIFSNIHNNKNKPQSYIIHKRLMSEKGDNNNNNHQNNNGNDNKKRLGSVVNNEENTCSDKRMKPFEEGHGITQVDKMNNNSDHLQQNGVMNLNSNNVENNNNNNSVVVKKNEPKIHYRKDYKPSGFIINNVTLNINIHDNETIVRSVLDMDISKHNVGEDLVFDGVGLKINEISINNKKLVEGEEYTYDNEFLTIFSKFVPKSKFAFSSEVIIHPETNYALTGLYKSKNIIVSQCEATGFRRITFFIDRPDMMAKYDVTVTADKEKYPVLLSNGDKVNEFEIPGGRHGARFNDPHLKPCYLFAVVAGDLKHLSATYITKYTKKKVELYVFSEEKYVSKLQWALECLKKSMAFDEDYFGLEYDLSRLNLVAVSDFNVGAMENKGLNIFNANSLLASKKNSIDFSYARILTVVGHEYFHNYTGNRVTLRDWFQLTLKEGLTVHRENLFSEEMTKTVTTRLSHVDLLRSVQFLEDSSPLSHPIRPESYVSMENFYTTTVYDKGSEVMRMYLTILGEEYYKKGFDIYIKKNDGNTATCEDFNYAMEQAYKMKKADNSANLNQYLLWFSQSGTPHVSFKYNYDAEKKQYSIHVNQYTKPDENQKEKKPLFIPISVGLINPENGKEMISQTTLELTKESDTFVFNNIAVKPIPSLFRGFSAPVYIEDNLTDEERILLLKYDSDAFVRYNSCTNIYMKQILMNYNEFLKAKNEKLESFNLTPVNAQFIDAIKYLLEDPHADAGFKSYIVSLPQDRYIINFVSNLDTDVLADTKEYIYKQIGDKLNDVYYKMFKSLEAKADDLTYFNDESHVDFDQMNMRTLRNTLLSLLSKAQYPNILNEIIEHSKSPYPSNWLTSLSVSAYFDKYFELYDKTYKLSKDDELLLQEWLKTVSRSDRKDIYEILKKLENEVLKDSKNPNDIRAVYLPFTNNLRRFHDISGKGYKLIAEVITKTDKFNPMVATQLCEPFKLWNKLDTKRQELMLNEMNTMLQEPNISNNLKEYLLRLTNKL", "assay": "P. falciparum M1AAP inhibitors, biochemical, fluorogenic H-Leu-NHMec substrate, 1536-well (AID 1445)", "design": "species or system Plasmodium falciparum 3D7, 3D7"}, "[13]": {"biological_target": "T3, Corticotropin-releasing factor receptor 2/Corticotropin-releasing factor-binding protein (Homo sapiens, UniProt P24387+Q13324)", "T3 sequence (Q13324 whole entry)": "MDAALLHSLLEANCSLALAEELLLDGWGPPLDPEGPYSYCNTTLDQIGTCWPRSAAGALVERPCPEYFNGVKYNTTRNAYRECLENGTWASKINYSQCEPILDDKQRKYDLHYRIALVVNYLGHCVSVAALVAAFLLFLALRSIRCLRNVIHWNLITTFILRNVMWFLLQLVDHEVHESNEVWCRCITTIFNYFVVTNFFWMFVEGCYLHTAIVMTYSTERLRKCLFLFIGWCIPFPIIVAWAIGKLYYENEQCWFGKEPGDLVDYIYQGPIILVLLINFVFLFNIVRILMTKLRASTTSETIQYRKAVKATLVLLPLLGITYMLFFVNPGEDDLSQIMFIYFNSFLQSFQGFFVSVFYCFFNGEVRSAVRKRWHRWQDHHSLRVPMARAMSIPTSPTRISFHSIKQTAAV", "T3 sequence (P24387 whole entry)": "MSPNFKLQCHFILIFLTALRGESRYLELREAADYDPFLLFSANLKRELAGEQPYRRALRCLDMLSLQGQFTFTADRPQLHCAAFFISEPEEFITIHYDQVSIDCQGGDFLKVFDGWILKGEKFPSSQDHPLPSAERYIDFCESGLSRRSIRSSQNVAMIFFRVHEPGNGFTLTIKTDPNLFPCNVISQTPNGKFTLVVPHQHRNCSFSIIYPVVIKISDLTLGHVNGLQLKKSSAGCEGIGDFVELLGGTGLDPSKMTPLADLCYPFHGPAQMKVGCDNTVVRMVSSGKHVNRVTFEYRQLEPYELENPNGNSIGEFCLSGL", "assay": "Dose Response confirmation of uHTS hits for small molecule antagonists of the CRF-binding protein and CRF-R2 receptor complex.", "type": "functional", "conditions": "read-out: IC50_Mean"}, "[14]": {"biological_target": "T3, Corticotropin-releasing factor receptor 2/Corticotropin-releasing factor-binding protein", "assay": "activators of CRF receptor 2 with binding protein – uHTS hits, confirmation (AID 602473)", "type": "functional", "conditions": "read-out: EC50_Mean"}, "[15]": {"assay": "CRF-BP/CRF-R2 complex antagonists, dose response, cell-based, uHTS hits, 384-well (AID 651639)", "type": "functional, Homo sapiens", "conditions": "read-out: IC50_Mean"}}, "note": "Activity calls are given as the source filed them."}
{"smiles": "O=C(Nc1ccccc1)N1CCCCN2[C@H](C1)[C@@H](c1ccc(C#Cc3ccccc3)cc1)[C@@H]2CO", "values": [{"measurement": "AC50", "setting": "Paired box protein Pax-8", "value": "10.5 µM (active)"}, {"measurement": "AC50", "setting": "[1]", "value": "26 µM (active)"}, {"measurement": "AC50", "setting": "[2]", "value": "26 µM (active)"}]}
{"smiles": "Cc1oc(-c2ccccc2Cl)nc1C[S+]([O-])CC(=O)NCCCN1CC(C)CC(C)C1", "note": "(stereo unspecified)", "values": [{"measurement": "EC50", "setting": "[3]", "value": "0.299 µM (active)"}]}
{"smiles": "CCOC(=O)c1oc2ccc(OC)cc2c1NC(=O)CN1CCN(C)CC1", "values": [{"measurement": "EC50", "setting": "[3]", "value": "1.06 µM (active)"}]}
{"smiles": "CSCc1nnc(NC(=O)c2ccc(S(=O)(=O)N(CC(C)C)CC(C)C)cc2)o1", "values": [{"measurement": "EC50", "setting": "[4]", "value": "1.01 µM (active)"}, {"measurement": "EC50", "setting": "Streptococcus", "value": "2.51 µM (active)"}, {"measurement": "EC50", "setting": "[5]", "value": "3.07 µM (active)"}]}
{"smiles": "CCCC(=O)Nc1c(-c2ccc(OC)cc2)c(=O)c2ccccc2n1C", "values": [{"measurement": "EC50", "setting": "Kallikrein-7", "value": "49.5 µM (inactive)"}]}
{"smiles": "CCOC(=O)c1c(CSC(=N)N)n(-c2ccc(Br)cc2)c2cc(Br)c(OC(C)=O)cc12", "values": [{"measurement": "EC50", "setting": "[6]", "value": "16.1 µM (active)"}, {"measurement": "EC50", "setting": "[7]", "value": "14.3 µM (active)"}, {"measurement": "IC50", "setting": "[8]", "value": "> 64 µM (inactive)"}]}
{"smiles": "c1ccc2sc(N3CN(CCN4CCOCC4)CN(c4nc5ccccc5s4)C3)nc2c1", "values": [{"measurement": "EC50", "setting": "[9]", "value": "> 50 µM (active)"}, {"measurement": "EC50", "setting": "[5]", "value": "5.23 µM (active)"}]}
{"smiles": "C[C@@H]1O[C@@H](O[C@@H]2[C@@H](O)[C@H](OCCc3ccc(O)c(O)c3)O[C@H](CO[C@@H]3O[C@H](CO)[C@@H](O)[C@H](O)[C@H]3O)[C@H]2OC(=O)/C=C/c2ccc(O)c(O)c2)[C@H](O)[C@H](O)[C@H]1O", "values": [{"measurement": "AC50", "setting": "Cytochrome P450 3A4", "value": "7.94 µM (inconclusive)"}]}
{"smiles": "CC1(C(=O)NCCN2CCOCC2)C=CCN1C(=O)c1ccccc1", "note": "(stereo unspecified)", "values": [{"measurement": "AC50", "setting": "Cytochrome P450 3A4", "value": "25.1 µM (inconclusive)"}]}
{"smiles": "CCC(CC)CC1CN2CCc3cc(OC)c(OC)cc3C2CC1(O)CC", "note": "(stereo unspecified)", "values": [{"measurement": "AC50", "setting": "[10]", "value": "2 µM (active)"}, {"measurement": "AC50", "setting": "[11]", "value": "> 70 µM (inactive)"}, {"measurement": "AC50", "setting": "[12]", "value": "3.89 µM (active)"}, {"measurement": "EC50", "setting": "Kallikrein-7", "value": "8.32 µM (active)"}]}
{"smiles": "Cc1cc(C)n(-c2nnc3n2N=C(c2ccccc2)CS3)n1", "values": [{"measurement": "IC50", "setting": "[8]", "value": "> 64 µM (inactive)"}]}
{"smiles": "CCN(CC)S(=O)(=O)c1cc(C(=O)Nc2ccc(Cl)cn2)ccc1C", "values": [{"measurement": "EC50", "setting": "[5]", "value": "2.3 µM (active)"}]}
{"smiles": "CC(C)N1C(=O)S/C(=C/c2ccccc2OCc2ccc(C(=O)O)cc2)C1=O", "values": [{"measurement": "IC50", "setting": "Aminopeptidase N", "value": "38.1 µM (active)"}, {"measurement": "IC50", "setting": "[13]", "value": "25.5 µM (active)"}, {"measurement": "EC50", "setting": "[14]", "value": "> 53 µM (inactive)"}, {"measurement": "IC50", "setting": "[15]", "value": "> 20 µM (inactive)"}]}
